Results published in US20210244028A1, “TREATMENT FOR REMOVING ECTOPARASITES FROM FISH” (priority 2018, published 2021).
Like-named read-outs stand apart in the source and are kept apart here.

Test system: Lepeophtheirus salmonis
Conditions: 20 ppm (nitenpyram 19 ppm); for percentage of sea lice that dropped from treated fish at the end of the treatment period: culled fish
Protocol: The fish were acclimatised until normal feeding behaviour resumed, up to a maximum of 10 days, prior to challenge. The fish were housed in 750 litre tanks at a stocking density of no greater than 35 kg/m3. Tanks were provided with a continuous supply of seawater at a flow rate greater than 5 L/min at a temperature of 4.8-10.4° C. The photoperiod was set at 12 hours light: 12 hours dark.
The fish were challenged in a static bath with copepodid instar of Lepeophtheirus salmonis with the appearance of egg strings freshly removed from adult female lice at a target titre of 1,250-1,700 copepodids per tank
Egg strings were harvested from gravid sea lice and incubated in upwelling chambers until nauplii eclosion. Nauplii were allowed to moult through to the copepodid instar (5 days at approx. 10° C.) and then the tank water was filtered through a 100 μm mesh before re-suspending the copepodids in 225 mL of sea water. A 25 mL sample was removed which was then split into 1-2 mL samples in a 24-well plate and the nauplii/copepodids were counted under a stereo microscope. When abundance was sufficient and a minimum of 80% were copepodids the fish were challenged for 8 hours under static flow in the dark.
Fish were randomly selected from tanks, lightly sedated in a 90 ppm MS222 solution sufficient only to induce loss of equilibrium before being sacrificed by a non-recoverable blow to the head. Between 4 and 33 fish were required per treatment.
Culled fish were then suspended in treatment tanks. Fish were suspended in the tank horizontally from cable ties (one through the opercular cavity, one around the peduncle) and wire attached to a wooden rod). One 20 L tank of test item at 20 ppm was used per day. Lice on culled fish were exposed for either 5, 10, 15, 30 or 60 minutes (negative control was only exposed for 60 minutes as this would cover the longest exposure period to be tested). The order within treatment was randomised.
Lice were monitored continuously for the duration of the exposure and behavioural observations noted, including detachment of lice from fish. At the end of exposure lice were either removed from the tank or fish, placed into small vented plastic screw-top containers (125 mL, LDPE, 25 mm hole drilled into lid and secured with 200 μm mesh), and transferred to a clean tank supplied with filtered sea water and held there for 24 h. Lice which had detached from fish were kept separate from those that had not detached.
On the day of exposure, 200 mg of the test ectoparasite treatments was added to 1 L of sea water. Only 192 mg of nitenpyram was supplied. The solution was mechanically stirred for 30 minutes, using a stirring plate and magnetic flea (VWR), at a speed sufficient to generate a strong vortex to ensure a homogenous solution. This was then transferred into an approx. 25 L clear plastic tank containing 9 L of sea water. The solution was then mixed for a further 10 minutes using a small pump (Fluval Sea CP1), which was then removed from the tank prior to addition of fish.
Each treatment requiring 1 to 4 fish per individual treatment per replicate and 2 to 13 fish per group per replicate. Treatments with negative control (sea water), dinotefuran, clothianidin and thiamethoxam were replicated twice, and for imidacloprid three times. There was only one replicate per treatment for nitenpyram. The mean number of lice used per individual treatment was 5.5 to 10, with the mean per group being 6.2-7.2 lice.

[1] = exposure 15 min, * only one louse knocked down
[2] = exposure 30 min, * only one louse knocked down
[3] = exposure 60 min, * only one louse knocked down

Compound: O=[N+]([O-])NC1=NCCN1Cc1ccc(Cl)nc1 [imidacloprid]
- percentage of sea lice that dropped from treated fish at the end of the treatment period (exposure 5 min): 0%
- knockdown times (mean±SEM) (exposure 10 min): 481 ± 60 s
- percentage of lice for which their knockdown time equalled that of the exposure time (exposure 10 min): 33.3%
- percentage of sea lice that dropped from treated fish at the end of the treatment period (exposure 10 min): 20.0%
- percentage of sea lice that dropped from treated fish at the end of the treatment period (exposure 15 min): 42.9%
- knockdown times (mean±SEM) [1]: 586 ± 114 s
- percentage of lice for which their knockdown time equalled that of the exposure time [1]: 28.6%
- percentage of sea lice that dropped from treated fish at the end of the treatment period (exposure 30 min): 41.2%
- knockdown times (mean±SEM) [2]: 1029 ± 165 s
- percentage of lice for which their knockdown time equalled that of the exposure time [2]: 11.1%
- percentage of sea lice that dropped from treated fish at the end of the treatment period (exposure 60 min): 92.9%
- knockdown times (mean±SEM) [3]: 1209 ± 235 s
- percentage of lice for which their knockdown time equalled that of the exposure time [3]: 7.7%
